Experimental data from paper doi:10.1101/2022.03.30.486313v1 (biorxiv, 2022).

Experiments:
SARS-CoV-2 PLpro [1] = molecular target: T1, SARS-CoV-2 PLpro (Severe acute respiratory syndrome coronavirus 2, UniProt P0DTD1); experiment: biochemical
SARS-CoV-2 PLpro [2] = molecular target: T1, SARS-CoV-2 PLpro; experiment: biochemical; remark: listed apart in the source

| SMILES | IC50 (SARS-CoV-2 PLpro [1]) [µM] | EC50 (SARS-CoV-2 PLpro [2]) [µM] |
| --- | --- | --- |
| CN(C)CCSSCCN(C)C [DMGA, bis[2-(N,N-dimethylamino)ethyl] disulfide] | 9.4 |  |
| O=S(=O)(O)CCSSCCS(=O)(=O)O [Dimesna] |  | 1050 |
| Cc1ncc(CSSCc2cnc(C)c(O)c2CO)c(CO)c1O [Pyritinol] |  | 18 |
